Results taken from publication PMC4341838 (Biochemistry, 2015).

Test: Circular dichroism in POPC liposomes
Type: physicochemical
Details: 1:250 peptide:lipid

SSLSLLSLSWLSLSLLSLS [SLscr2]
Conformation by CD in POPC liposomes, in words: β-sheet-like conformation
